Test results as given in US10065990B2, “Cyclic peptide compound, and preparation method, pharmaceutical composition and use thereof” (HANGZHOU GUANYU BIO-MEDICAL CO., LTD, priority 2013, dated 2018).
Where two headings read alike, the source gives them in different places.

Columns and labels:
HDAC7 = biological target: T1, HDAC7 (Homo sapiens, UniProt Q8WUI4); test: HDAC biochemical activity measurement (fluorescent substrate deacetylation);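 further: fluorogenic deacetylation assay using acetyl-lysine substrate at 20 µM, enzyme and compound incubated 30 min at 37 °C, then developer added, fluorescence read at 360/460 nm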; details: HDAC7; 37° C. 30 minutes
T1 sequence (Q8WUI4 1-952): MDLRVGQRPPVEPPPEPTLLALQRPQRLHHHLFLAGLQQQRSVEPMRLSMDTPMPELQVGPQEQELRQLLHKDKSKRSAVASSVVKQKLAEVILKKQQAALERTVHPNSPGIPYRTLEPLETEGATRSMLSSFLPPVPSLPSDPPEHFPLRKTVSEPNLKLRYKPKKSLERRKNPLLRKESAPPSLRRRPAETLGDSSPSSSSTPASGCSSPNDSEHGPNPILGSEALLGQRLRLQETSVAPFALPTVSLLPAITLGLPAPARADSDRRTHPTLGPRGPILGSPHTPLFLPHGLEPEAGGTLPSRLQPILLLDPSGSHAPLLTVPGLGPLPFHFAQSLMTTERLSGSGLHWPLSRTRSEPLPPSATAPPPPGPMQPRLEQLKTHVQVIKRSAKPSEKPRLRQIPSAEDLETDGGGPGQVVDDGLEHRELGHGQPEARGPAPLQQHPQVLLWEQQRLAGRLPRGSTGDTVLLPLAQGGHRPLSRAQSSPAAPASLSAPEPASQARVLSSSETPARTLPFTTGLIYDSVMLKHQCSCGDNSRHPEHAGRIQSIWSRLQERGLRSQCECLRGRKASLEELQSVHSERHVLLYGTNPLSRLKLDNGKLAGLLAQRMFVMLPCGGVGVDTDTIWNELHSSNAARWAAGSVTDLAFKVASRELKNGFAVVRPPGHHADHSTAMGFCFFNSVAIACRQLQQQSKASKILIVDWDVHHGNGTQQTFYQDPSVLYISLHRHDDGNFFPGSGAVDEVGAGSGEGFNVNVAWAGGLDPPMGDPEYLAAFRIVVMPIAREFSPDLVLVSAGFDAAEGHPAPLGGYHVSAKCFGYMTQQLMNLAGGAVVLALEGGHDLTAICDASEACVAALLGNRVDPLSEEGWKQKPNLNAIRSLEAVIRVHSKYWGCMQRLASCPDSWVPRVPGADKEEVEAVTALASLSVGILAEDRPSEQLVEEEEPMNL

[1] = tested on: Bel-7402 (human hepatoma cells); test: MTT cancer cell growth inhibition; format: cell-based; details: Homo sapiens, Bel-7402, 72 h, MTT, 72 hours incubation, Bel-7402 cells; read-out: GI50 Bel-7402
Procedure, shortened: (§1)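 GI50 values come from viability measured by MTT reduction at 570 nm. Plated overnight at 1500 cells per well, cultures received drug in three parallel wells across 10^−5–10^−10 M final and were incubated 72 h at 37° C. under 5% CO2 before MTT for 4 h.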

[2] = tested on: MOLT-4 (human acute lymphoblastic leukemia cells); test: MTT cancer cell growth inhibition; format: cell-based; details: Homo sapiens, MOLT-4, 72 h, MTT, 72 hours incubation, read-out: GI50 Mol
Procedure, shortened: as §1

[3] = tested on: K562 (human leukemia cells); test: MTT cancer cell growth inhibition; format: cell-based; details: Homo sapiens, K562, 72 h, MTT, 72 hours incubation, K562 cells; read-out: GI50 K562
Procedure, shortened: as §1

[4] = tested on: lncap (prostate cancer cells); test: MTT cancer cell growth inhibition; format: cell-based; details: Homo sapiens, LNCaP, 72 h, MTT, 72 hours incubation, read-out: GI50 lnca
Procedure, shortened: as §1

[5] = tested on: A549 (human lung cancer cells); test: MTT cancer cell growth inhibition; format: cell-based; details: Homo sapiens, A549, 72 h, MTT, 72 hours incubation, read-out: GI50 A54
Procedure, shortened: as §1

[6] = tested on: KBM-5 (human chronic myelogenous leukemia); test: MTT cancer cell growth inhibition; format: cell-based; details: Homo sapiens, KBM5, 72 h, MTT, 72 hours incubation, KBM-5 cells; read-out: GI50 KBM-5
Procedure, shortened: as §1

[7] = tested on: Huh-7 (human hepatoma cells); test: MTT cancer cell growth inhibition; format: cell-based; details: Homo sapiens, Huh-7, 72 h, MTT, 72 hours incubation, Huh-7 cells; read-out: GI50 Huh-7
Procedure, shortened: as §1

[8] = tested on: BGC-823 (human gastric cancer cells); test: MTT cancer cell growth inhibition; format: cell-based; details: Homo sapiens, BGC-823, 72 h, MTT, 72 hours incubation, read-out: GI50 BG
Procedure, shortened: as §1

[9] = tested on: DU145 (human prostate cancer cells); test: MTT cancer cell growth inhibition; format: cell-based; details: Homo sapiens, DU-145, 72 h, MTT, 72 hours incubation, read-out: GI50 Du1
Procedure, shortened: as §1

[10] = tested on: KBM5-T315I (human chronic myelogenous leukemia); test: MTT cancer cell growth inhibition; format: cell-based; details: Homo sapiens, 72 h, MTT, 72 hours incubation, KBM5-T315I cells; read-out: GI50 KBM5-T315I
Procedure, shortened: as §1

[11] = tested on: Hela (human cervical cancer cells); test: MTT cancer cell growth inhibition; format: cell-based; details: Homo sapiens, HeLa, 72 h, MTT, 72 hours incubation, read-out: GI50 Hela
Procedure, shortened: as §1

[12] = tested on: H1975 (non-small cell lung adenocarcinoma); test: MTT cancer cell growth inhibition; format: cell-based; details: Homo sapiens, NCI-H1975, 72 h, MTT, 72 hours incubation, H1975 cells; read-out: GI50 H1975
Procedure, shortened: as §1

[13] = tested on: MCF-7 (human breast cancer cells); test: MTT cancer cell growth inhibition; format: cell-based; details: Homo sapiens, MCF7, 72 h, 72 hours incubation, read-out: GI50 MCF
Procedure, shortened: as §1

[14] = tested on: PANC-1 (Pac-1, human pancreatic cancer cells); test: MTT cancer cell growth inhibition; format: cell-based; details: Homo sapiens, PANC-1, 72 h, MTT, 72 hours incubation, read-out: GI50 PAN
Procedure, shortened: as §1

[15] = tested on: SGC-7901 (human gastric cancer cells); test: MTT cancer cell growth inhibition; format: cell-based; details: Homo sapiens, SGC-7901, 72 h, MTT, 72 hours incubation, SGC-7901 cells; read-out: GI50 SGC-7901
Procedure, shortened: as §1

[16] = tested on: U937 (human leukemia cells); test: MTT cancer cell growth inhibition; format: cell-based; details: Homo sapiens, U-937, 72 h, MTT, 72 hours incubation, read-out: GI50 U93
Procedure, shortened: as §1

[17] = tested on: N-87 (human gastric cancer cells); test: MTT cancer cell growth inhibition; format: cell-based; details: Homo sapiens, 72 h, MTT, 72 hours incubation, N-87 cells; read-out: GI50 N-87
Procedure, shortened: as §1

[18] = tested on: HT1080 (human fibrosarcoma cells); test: MTT cancer cell growth inhibition; format: cell-based; details: Homo sapiens, HT-1080, 72 h, MTT, 72 hours incubation, read-out: GI50 HT1
Procedure, shortened: as §1

[19] = tested on: MDA-MB-231 (breast cancer cells); test: MTT cancer cell growth inhibition; format: cell-based; details: Homo sapiens, MDA-MB-231, 72 h, read-out: GI50 MDA-MB-231, MTT, 72 hours incubation, MDA-MB-231 cells
Procedure, shortened: as §1

[20] = tested on: HCC827 (human non-small cell lung cancer cells); test: MTT cancer cell growth inhibition; format: cell-based; details: Homo sapiens, HCC827, 72 h, MTT, 72 hours incubation, HCC827 cells; read-out: GI50 HCC827
Procedure, shortened: as §1

Row | IC50 HDAC7 (HDAC7) | GI50 [1] [µM] | GI50 [2] [µM] | GI50 [3] [µM] | GI50 [4] [µM] | GI50 [5] [µM] | GI50 [6] [µM] | GI50 [7] [µM] | GI50 [8] [µM] | GI50 [9] [µM] | GI50 [10] [µM] | GI50 [11] [µM] | GI50 [12] [µM] | GI50 [13] [µM] | GI50 [14] [µM] | GI50 [15] [µM] | GI50 [16] [µM] | GI50 [17] [µM] | GI50 [19] [µM] | GI50 [20] [µM] | Structure (SMILES) | also measured
1 | no activity | 0.022 | 0.02 | 0.046 | 0.03 | 0.04 | 0.009 | 0.036 | 0.07 | 0.01 | 0.035 | 0.08 | 0.035 | 0.05 | 0.08 | 0.051 | 0.03 | 0.031 | 0.058 | 0.041 | CC(C)=C1NC(=O)c2nc(ccc2F)CNC(=O)C[C@@H](/C=C/CCS)OC(=O)[C@H](C(C)C)NC1=O [Compound 136] | GI50 [18]: 0.04 µM
2 | no activity | 0.023 |  | 0.062 |  |  | 0.035 | 0.058 |  |  | 0.053 |  | 0.024 |  |  | 0.075 |  | 0.063 | 0.036 | 0.035 | C/C=C1\NC(=O)c2nc(ccc2SC)CNC(=O)C[C@@H](/C=C/CCSC(=O)CCC)OC(=O)[C@H](C(C)C)NC1=O [Compound 159] | GI50 ([2]; MOLT-4 cells): 0.05 µM; GI50 ([4]; lncap cells): 0.06 µM; GI50 ([5]; A549 cells): 0.03 µM; GI50 ([8]; BGC-823 cells): 0.08 µM; GI50 ([9]; DU145 cells): 0.04 µM; GI50 ([11]; Hela cells): 0.07 µM; GI50 ([13]; MCF-7 cells): 0.05 µM; GI50 ([14]; PANC-1 cells): 0.05 µM; GI50 ([16]; U937 cells): 0.06 µM; GI50 ([18]; HT1080 cells): 0.05 µM
3 | no activity | 0.027 |  | 0.048 |  |  | 0.038 | 0.033 |  |  | 0.021 |  | 0.046 |  |  | 0.057 |  | 0.019 | 0.079 | 0.055 | CSc1ccc2nc1C(=O)NC(=C(C)C)C(=O)N[C@@H](C(C)C)C(=O)O[C@H](/C=C/CCSC(C)=O)CC(=O)NC2 [Compound 207] | GI50 ([2]; MOLT-4 cells): 0.01 µM; GI50 ([4]; lncap cells): 0.05 µM; GI50 ([5]; A549 cells): 0.03 µM; GI50 ([8]; BGC-823 cells): 0.03 µM; GI50 ([9]; DU145 cells): 0.03 µM; GI50 ([11]; Hela cells): 0.02 µM; GI50 ([13]; MCF-7 cells): 0.04 µM; GI50 ([14]; PANC-1 cells): 0.05 µM; GI50 ([16]; U937 cells): 0.04 µM; GI50 ([18]; HT1080 cells): 0.03 µM
4 | no activity | 0.084 | 0.03 | 0.039 | 0.03 | 0.03 | 0.077 | 0.033 | 0.04 | 0.03 | 0.064 | 0.07 | 0.034 | 0.06 | 0.08 | 0.034 | 0.03 | 0.049 | 0.033 | 0.084 | C/C=C1\NC(=O)c2ccc(F)c(n2)CNC(=O)C[C@@H](/C=C/CCSC(=O)CCCCC)OC(=O)[C@H](C(C)C)NC1=O [Example 38] | GI50 [18]: 0.08 µM
5 | no activity | 0.054 |  | 0.023 |  |  | 0.021 | 0.071 |  |  | 0.029 |  | 0.035 |  |  | 0.099 |  | 0.032 | 0.083 | 0.037 | C/C=C1\NC(=O)c2nc(ccc2SC)CNC(=O)C[C@@H](/C=C/CCSC(C)=O)OC(=O)[C@H](CCCCN)NC1=O [Compound 192] | GI50 ([2]; MOLT-4 cells): 0.09 µM; GI50 ([4]; lncap cells): 0.02 µM; GI50 ([5]; A549 cells): 0.09 µM; GI50 ([8]; BGC-823 cells): 0.07 µM; GI50 ([9]; DU145 cells): 0.08 µM; GI50 ([11]; Hela cells): 0.29 µM; GI50 ([13]; MCF-7 cells): 0.05 µM; GI50 ([14]; PANC-1 cells): 0.06 µM; GI50 ([16]; U937 cells): 0.02 µM; GI50 ([18]; HT1080 cells): 0.05 µM
6 | no activity | 0.062 | 0.04 | 0.029 | 0.04 | 0.07 | 0.092 | 0.043 | 0.05 | 0.02 | 0.063 | 0.09 | 0.029 | 0.06 | 0.06 | 0.077 | 0.02 | 0.052 | 0.043 | 0.062 | C/C=C1\NC(=O)c2ccc(F)c(n2)CNC(=O)C[C@@H](/C=C/CCSC(C)=O)OC(=O)[C@H](C)NC1=O [Example 65] | GI50 [18]: 0.06 µM
